From patent publication US20120258038A1, “USES OF APOPTOTIC CELL-TARGETING PEPTIDES, LABEL SUBSTANCES AND LIPOSOMES CONTAINING A THERAPEUTIC AGENT FOR PREVENTING, TREATING OR THERAPEUTICALLY DIAGNOSING APOPTOSIS-RELATED DISEASES” (Kyungpook National University Industry-Academic Cooperation …, priority 2009, published 2012)

B1: annexin V: protein having a molecular weight of 36 kDa, binds to phosphatidylserine with strong affinity (protein, UniProt P08758 2-320, looked up)
Annexin A5: AQVLRGTVTDFPGFDERADAETLRKAMKGLGTDEESILTLLTSRSNAQRQEISAAFKTLFGRDLLDDLKSELTGKFEKLIVALMKPSRLYDAYELKHALKGAGTNEKVLTEIIASRTPEELRAIKQVYEEEYGSSLEDDVVGDTSGYYQRMLVVLLQANRDPDAGIDEAQVEQDAQALFQAGELKWGTDEEKFITIFGTRSVSHLRKVFDKYMTISGFQIEETIDRETSGNLEQLLLAVVKSIRSIPAYLAETLYYAMKGAGTDDHTLIRVMVSRSEIDLFNIRKEFRKNFATSLYSMIKGDTSGDYKKALLLLCGEDD

Experiments:
[1] = tested on: etoposide-treated apoptotic cells (A549, H460, HeLa, L132, RAW); assay: Microscopic observation of binding of the peptide to apoptotic cells; type: cell-based; conditions: for labeling of etoposide-treated apoptotic cells: etoposide 50 μM; for labeling of etoposide-treated apoptotic cells / labeling of normal cells not treated with etoposide: fluorescence microscopy, fluorescein-labeled peptide 10 μM, alexa 594-labeled annexin V; for labeling of normal cells not treated with etoposide: 4° C., 1 hour
Description: Cells were cultured in a chamber slide (Nalgen Nunc), and treated with etoposide (Sigma) at a concentration of 50 μM for a given period of time to induce apoptosis (A549 and HeLa cells: for 15 hours, H460 cells: 24 hours, L132 cells: 3 hours, and RAW cells: 6 hours). The cells were cultured in RMPI-1640 medium (A549 and H460 cells) or DMEM medium (HeLa, L132 and RAW cells) containing antibiotics (penicillin and streptomycin) and 10% FBS. Meanwhile, all the cells were subcultured every 3 or 4 days. The apoptosis-induced apoptotic cells were washed with PBS, and blocked with 1% BSA at 37° C. for 30 minutes. Then, the cells were reacted with 10 μM of the peptide labeled with fluorescein, at 4° C. for 1 hour. After being washed, the cells were reacted with an annexin V reaction buffer solution containing alexa 594 (fluorescent reagent)-labeled annexin V (Molecular Probes) at room temperature for 15 minutes. The cells were washed with PBS, and then fixed with 4% paraformaldehyde for 5 minutes. Then, after counterstaining using the nuclear stain 4′,6-diamidino-2-phenylindole (DAPI), followed by treatment with a mounting solution (Molecular Probes), images of the cells were obtained under a fluorescence microscope (Zeiss).

[2] = tested on: apoptotic A549 cells; assay: Competitive inhibition of binding to apoptotic cells by annexin V pre-treatment; type: cell-based, human
Description: In order to further investigate the binding properties of the inventive peptide (ApoPep-1) to apoptotic cells, competitive inhibition by annexin V was measured. For this, first, apoptotic A549 cells were pretreated with annexin V, not labeled with fluorescence, at concentrations of 0, 200 and 1000 μM. Then, after the cells were reacted with fluorescence-labeled annexin V under the same condition as described in Example <2-1>, the binding of the cells was observed under a fluorescence microscope.
Meanwhile, apoptotic A549 cells were pre-treated with annexin V, not labeled with fluorescence, at a concentration of 1000 μM. Then, after the cells were reacted with fluorescence-labeled peptide under the same condition as described in Example <2-1>, the binding of the cells was observed under a fluorescence microscope.

[3] = tested on: A549 cells; assay: FACS analysis of binding to apoptotic cells; type: cell-based, human; conditions: for percentage of cells bound/stained, early stage of apoptosis (fraction Q4) / percentage of cells bound/stained, later stage of apoptosis (fraction Q2): A549 cells treated with 50 μM etoposide for 15 hours, PI co-staining
Description: As another way of confirming the binding of the inventive peptide to apoptotic cells, apoptotic cells were treated with the inventive peptide labeled with fluorescein, and the binding was confirmed through FACS analysis. First, apoptosis was induced by treating A549 cells with 50 μM etoposide for 6 to 15 hours. The apoptotic cells or normal cells were reacted with the inventive ApoPep-1 peptide(5 μM) or a control peptide at the same concentration, labeled with fluorescein, at 4° C. for 1 hour. Meanwhile, the cells were reacted with fluorescein-labeled annexin V at room temperature for 15 minutes. After simultaneously staining the cells with propodium iodide (PI), followed by washing with PBS, FACS analysis was performed using a FACS instrument (Becton Dickinson).

Molecule | labeling of etoposide-treated apoptotic cells [1] | location of binding compared with annexin V (merged images) ([1]; etoposide-treated apoptotic cells) | labeling of normal cells not treated with etoposide [1] | binding of the peptide after pre-treatment with annexin V ([2]; annexin V not labeled with fluorescence, 1000 μM) | binding to normal cells ([3]; A549 cells not treated with etoposide, 5 μM, fluorescein-labeled) | percentage of cells bound/stained, early stage of apoptosis (fraction Q4) [3] | percentage of cells bound/stained, later stage of apoptosis (fraction Q2) [3] | fluorescence of fluorescence-labeled annexin V after pre-treatment with annexin V not labeled with fluorescence ([2]; pre-treatment 0, 200 and 1000 μM, high concentration)
CQRPPR (Apoptotic cell-targeting peptide, ApoPep-1) | labeling was observed | at the same locations | no labeling was observed | not inhibited | almost nonexistent | 90.3% | 7.2% | –
B1 | labeling was observed | – | no labeling was observed | – | – | 64.3% | 9.4% | significantly decreased
